Test results from ChEMBL document CHEMBL1201862, “PubChem BioAssay data set” (2004).
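Method: 48-hour compound exposure of cells in 96-well plates, five concentrations, linear interpolation of endpoints. Abbreviation: GI50, concentration required for 50% inhibition of growth.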 Active and inactive are the calls of the source. Rule as the data show it: active = GI50 up to about 1.1 µM and inactive = higher.

Legend:
Experiment in all cases: NCI tumour cell line growth inhibition, 48 h
A498 = system: A498
A549 = system: A549
ACHN = system: ACHN
BT-549 = system: BT-549
CAKI-1 = system: CAKI-1
CCRF-CEM = system: CCRF-CEM
COLO 205 = system: COLO 205
DU-145 = system: DU-145
EKVX = system: EKVX
HCC 2998 = system: HCC 2998
HCT-116 = system: HCT-116
HCT-15 = system: HCT-15
HL-60 = system: HL-60
HOP-62 = system: HOP-62
HOP-92 = system: HOP-92
HT-29 = system: HT-29
Hs-578T = system: Hs-578T
IGROV-1 = system: IGROV-1
K562 = system: K562
KM12 = system: KM12
LOX IMVI = system: LOX IMVI
M14 = system: M14
MCF7 = system: MCF7
MDA-MB-231 = system: MDA-MB-231
MDA-MB-435 = system: MDA-MB-435
MDA-N = system: MDA-N
MOLT-4 = system: MOLT-4
Malme-3M = system: Malme-3M
NCI-H226 = system: NCI-H226
NCI-H23 = system: NCI-H23
NCI-H460 = system: NCI-H460
NCI-H522 = system: NCI-H522
NCI/ADR-RES = system: NCI/ADR-RES
OVCAR-3 = system: OVCAR-3
OVCAR-4 = system: OVCAR-4
OVCAR-5 = system: OVCAR-5
OVCAR-8 = system: OVCAR-8
PC-3 = system: PC-3
RPMI-8226 = system: RPMI-8226
SF-268 = system: SF-268
SF-295 = system: SF-295
SF-539 = system: SF-539
SK-MEL-28 = system: SK-MEL-28
SK-MEL-2 = system: SK-MEL-2
SK-MEL-5 = system: SK-MEL-5
SK-OV-3 = system: SK-OV-3
SN12C = system: SN12C
SNB-19 = system: SNB-19
SNB-75 = system: SNB-75
SR = system: SR
SW-620 = system: SW-620
T47D = system: T47D
TK-10 = system: TK-10
U-251 = system: U-251
UACC-257 = system: UACC-257
UACC-62 = system: UACC-62
UO-31 = system: UO-31
786-0 = system: 786-0

Structure (SMILES): COc1ccc(C(=O)c2c(-c3ccccc3NC(=O)C(F)(F)F)[nH]c3ccccc23)cc1
- GI50 (A498): 2.17 µM (inactive)
- GI50 (A549): 5.66 µM (inactive)
- GI50 (ACHN): 3.16 µM (inactive)
- GI50 (BT-549): 14.5 µM (inactive)
- GI50 (CAKI-1): 6.41 µM (inactive)
- GI50 (CCRF-CEM): 2.46 µM (inactive)
- GI50 (COLO 205): 4.05 µM (inactive)
- GI50 (DU-145): 5.18 µM (inactive)
- GI50 (EKVX): 11.8 µM (inactive)
- GI50 (HCC 2998): 3.4 µM (inactive)
- GI50 (HCT-116): 12.2 µM (inactive)
- GI50 (HCT-15): 4.98 µM
- GI50 (HL-60): 2.42 µM (inactive)
- GI50 (HOP-62): 9.16 µM (inactive)
- GI50 (HOP-92): 12.4 µM (inactive)
- GI50 (HT-29): 3.97 µM (inactive)
- GI50 (Hs-578T): 18.1 µM (inactive)
- GI50 (IGROV-1): 10.6 µM (inactive)
- GI50 (K562): 5.65 µM (inactive)
- GI50 (KM12): 3.88 µM (inactive)
- GI50 (LOX IMVI): 4.35 µM (inactive)
- GI50 (M14): 14.3 µM (inactive)
- GI50 (MCF7): 1.74 µM (inactive)
- GI50 (MDA-MB-231): 7.28 µM (inactive)
- GI50 (MDA-MB-435): 9.89 µM (inactive)
- GI50 (MDA-N): 15.3 µM (inactive)
- GI50 (MOLT-4): 2.93 µM (inactive)
- GI50 (Malme-3M): 14.4 µM (inactive)
- GI50 (NCI-H226): 14.7 µM (inactive)
- GI50 (NCI-H23): 11.7 µM (inactive)
- GI50 (NCI-H460): 4.26 µM (inactive)
- GI50 (NCI-H522): 7.33 µM (inactive)
- GI50 (NCI/ADR-RES): 8.28 µM (inactive)
- GI50 (OVCAR-3): 3.83 µM (inactive)
- GI50 (OVCAR-4): 4.59 µM (inactive)
- GI50 (OVCAR-5): 12.5 µM (inactive)
- GI50 (OVCAR-8): 6.19 µM (inactive)
- GI50 (PC-3): 5.92 µM (inactive)
- GI50 (RPMI-8226): 4.8 µM (inactive)
- GI50 (SF-268): 12.8 µM (inactive)
- GI50 (SF-295): 12.1 µM (inactive)
- GI50 (SF-539): 1.94 µM (inactive)
- GI50 (SK-MEL-28): 13.6 µM (inactive)
- GI50 (SK-MEL-2): 4.02 µM (inactive)
- GI50 (SK-MEL-5): 8.95 µM (inactive)
- GI50 (SK-OV-3): 14.6 µM (inactive)
- GI50 (SN12C): 14.6 µM (inactive)
- GI50 (SNB-19): 6.37 µM (inactive)
- GI50 (SNB-75): 2.47 µM (inactive)
- GI50 (SR): 2.81 µM (inactive)
- GI50 (SW-620): 4.06 µM (inactive)
- GI50 (T47D): 1.47 µM (inactive)
- GI50 (TK-10): 11.6 µM (inactive)
- GI50 (U-251): 2.56 µM (inactive)
- GI50 (UACC-257): 15.6 µM (inactive)
- GI50 (UACC-62): 12.1 µM (inactive)
- GI50 (UO-31): 5.05 µM (inactive)

Structure (SMILES): O=C(O)CN(CC(=O)O)C1CCCCC1N1CC(=O)OC(=O)C1 (stereo not given)
- GI50 (786-0): > 100 µM (inactive)
- GI50 (A498): > 100 µM (inactive)
- GI50 (A549): > 100 µM (inactive)
- GI50 (ACHN): > 100 µM (inactive)
- GI50 (BT-549): > 100 µM (inactive)
- GI50 (CAKI-1): > 100 µM (inactive)
- GI50 (CCRF-CEM): > 100 µM (inactive)
- GI50 (COLO 205): > 100 µM (inactive)
- GI50 (DU-145): > 100 µM (inactive)
- GI50 (EKVX): > 100 µM (inactive)
- GI50 (HCC 2998): 74.3 µM (inactive)
- GI50 (HCT-116): > 100 µM (inactive)
- GI50 (HCT-15): 95.9 µM
- GI50 (HL-60): > 100 µM (inactive)
- GI50 (HOP-62): > 100 µM (inactive)
- GI50 (HOP-92): > 100 µM (inactive)
- GI50 (HT-29): 38.4 µM (inactive)
- GI50 (Hs-578T): 47.1 µM (inactive)
- GI50 (IGROV-1): 49.1 µM (inactive)
- GI50 (K562): 71.8 µM (inactive)
- GI50 (KM12): > 100 µM (inactive)
- GI50 (LOX IMVI): > 100 µM (inactive)
- GI50 (M14): > 100 µM (inactive)
- GI50 (MCF7): 69.3 µM (inactive)
- GI50 (MDA-MB-231): > 100 µM (inactive)
- GI50 (MDA-MB-435): > 100 µM (inactive)
- GI50 (MDA-N): > 100 µM (inactive)
- GI50 (MOLT-4): > 100 µM (inactive)
- GI50 (Malme-3M): 10.3 µM (inactive)
- GI50 (NCI-H226): > 100 µM (inactive)
- GI50 (NCI-H23): > 100 µM (inactive)
- GI50 (NCI-H460): > 100 µM (inactive)
- GI50 (NCI-H522): > 100 µM (inactive)
- GI50 (NCI/ADR-RES): > 100 µM (inactive)
- GI50 (OVCAR-3): > 100 µM (inactive)
- GI50 (OVCAR-4): > 100 µM (inactive)
- GI50 (OVCAR-5): > 100 µM (inactive)
- GI50 (OVCAR-8): > 100 µM (inactive)
- GI50 (PC-3): > 100 µM (inactive)
- GI50 (RPMI-8226): > 100 µM (inactive)
- GI50 (SF-268): 61.7 µM (inactive)
- GI50 (SF-295): > 100 µM (inactive)
- GI50 (SF-539): > 100 µM (inactive)
- GI50 (SK-MEL-28): > 100 µM (inactive)
- GI50 (SK-MEL-2): > 100 µM (inactive)
- GI50 (SK-MEL-5): > 100 µM (inactive)
- GI50 (SK-OV-3): > 100 µM (inactive)
- GI50 (SN12C): > 100 µM (inactive)
- GI50 (SNB-19): > 100 µM (inactive)
- GI50 (SNB-75): 17.2 µM (inactive)
- GI50 (SR): 71.4 µM (inactive)
- GI50 (SW-620): 42.6 µM (inactive)
- GI50 (T47D): 51.3 µM (inactive)
- GI50 (TK-10): > 100 µM (inactive)
- GI50 (U-251): 43.4 µM (inactive)
- GI50 (UACC-257): > 100 µM (inactive)
- GI50 (UACC-62): > 100 µM (inactive)
- GI50 (UO-31): > 100 µM (inactive)
